Values of other authors as cited in patent US20140163109A1, “TASTE-MASKED IBUPROPEN GRANULES” (GLATT AG, priority 2012, published 2014).

solubility in water: poorly soluble in water
SMILES: CC(C)Cc1ccc(C(C)C(=O)O)cc1 (racemic) [Ibuprofen, (±)-2-(4-isobutylphenyl) propionic acid]
